In BindingDB's records for doi:10.7270/Q2NS0S90 (The Scripps Research Institute Molecular Screening Center, 2009):

Biological target: VIM-2 metallo β-lactamase (Pseudomonas aeruginosa, UniProt Q9K2N0)
Experiment: VIM-2 CCF2 hydrolysis inhibition, assay artifact filter – biochemical, FRET readout, CCF2 substrate, artefact control for selective VIM-2 inhibitor project, dose response (AID 1926)

SMILES | IC50 [µM]
COc1ccc(C(=O)C2C(=O)C(=O)N(Cc3ccco3)C2c2cc(OC)ccc2OC)cc1 (configuration not stated) [(4E)-5-(2,5-dimethoxyphenyl)-1-(2-furanylmethyl)-4-[hydroxy-(4-methoxyphenyl)methylidene]pyrrolidine-2,3-dione] | 5.61
O=C1C(=O)N(Cc2cccnc2)C(c2ccccn2)C1C(=O)c1cccs1 (configuration not stated) [3-hydroxy-5-(2-pyridinyl)-1-(3-pyridinylmethyl)-4-(2-thienylcarbonyl)-1,5-dihydro-2H-pyrrol-2-one] | 4.83
COc1ccc(OC)c(C=NNC(=O)Cc2c(C)[nH][nH]c2=O)c1 [SMR000147372] | 2.13
O=C1C(=O)N(Cc2cccnc2)C(c2ccccn2)C1C(=O)c1ccccc1 (configuration not stated) [(4Z)-4-[hydroxy(phenyl)methylene]-5-(2-pyridyl)-1-(3-pyridylmethyl)pyrrolidine-2,3-quinone] | 2.17
COc1cc(OC)c(OC)cc1C=NNC(=O)Cc1c(C)[nH][nH]c1=O [MLS000555854] | 1.46
COc1ccc(OC)c(C2C(C(=O)c3ccco3)C(=O)C(=O)N2Cc2cccnc2)c1 (configuration not stated) [2-(2,5-dimethoxyphenyl)-3-(furan-2-carbonyl)-4-hydroxy-1-(pyridin-3-ylmethyl)-2H-pyrrol-5-one] | 0.7
O=C1C(=O)N(Cc2cccnc2)C(c2ccccn2)C1C(=O)c1ccc(F)cc1 (configuration not stated) [(4Z)-4-[(4-fluorophenyl)-hydroxy-methylene]-5-(2-pyridyl)-1-(3-pyridylmethyl)pyrrolidine-2,3-quinone] | 0.941
